Measured values published in patent US11129835B2, “Methods and compositions for the inhibition of PIN1” (Beth Israel Deaconess Medical Center, Inc., priority 2012, dated 2021).

Experiments:
[1] = target: Pin1 and DAPK1 (Homo sapiens, UniProt Q13526); test: association between Pin1 and DAPK1; assay type: binding
[2] = system: MCF10A; test: cell viability, normal cell line; assay type: cell-based
Text: (§1) This discrepancy between cell lines was correlated with the RAs' ability to suppress Pin1 expression. Pin1 level was decreased by treatment of RAs in drugs-responsive SKBR3 and T47D, but not in drugs-irresponsive normal cells, MCF10A, in which Pin1 target protein, cyclin D1, served as biomarker of in vivo Pin1 activity.

[3] = target: T1, full length Pin1 (Homo sapiens, UniProt Q13526); test: single-step fluorescence polarization-based displacement assay (FP-HTS), 384-well, HF488 probe; assay type: binding; conditions: for Pin1 inhibition in the FP assay: cis-RA compared with trans-RA
T1 construct: FP-HTS in a 384-well plate format with full length Pin1
Description: A high-throughput screen for identifying Pin1 inhibitors was developed using a single-step fluorescence polarization-based displacement assay (FP-HTS).
The FP-HTS with a 5 nM probe and 200 nM Pin1 was used to conduct a pilot screen on a selected set of chemical libraries.
(§2) The anti-cancer effect of RAs was examined to determine whether it depends on RAR in the breast cancer cells.

[4] = system: SKBR3; test: cell viability of breast cancer cell lines; assay type: cell-based
Text: as §1

[5] = system: T47D; test: cell viability of breast cancer cell lines; assay type: cell-based
Text: as §1

[6] = target: Pin1 (Homo sapiens, UniProt Q13526); test: PPIase assay; assay type: biochemical
Text: The anti-cancer effect of RAs was examined to determine whether it depends on RAR in the breast cancer cells. […] In the PPIase assay, Pin1 activity was blocked by either cis- or trans-RA in a dose-dependent manner.

[7] = system: breast cancer cells; test: RARa knockdown rescue of cis-RA-mediated cell death; assay type: cell-based
Text: as §2

[8] = system: Pin1 K63A, S67E, R68/69A, H59A or S71E; test: trans-RA binding to Pin1 point mutants
[9] = system: mouse embryonic fibroblast (WT MEF, Pin1 KO MEF); test: trans-RA-mediated cell viability in WT and Pin1 knockout MEF; assay type: cell-based
Text: To further confirm this premise, wild-type mouse embryonic fibroblast (WT MEF) and Pin1 knockout MEF (Pin1 KO MEF) were used to test trans-RA-mediated cell viability.

T1 sequence (Q13526 whole entry): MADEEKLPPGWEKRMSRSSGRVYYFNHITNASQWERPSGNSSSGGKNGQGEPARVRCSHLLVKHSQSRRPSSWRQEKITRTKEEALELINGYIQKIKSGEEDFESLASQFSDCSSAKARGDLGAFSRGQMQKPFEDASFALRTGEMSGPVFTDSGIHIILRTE
Pin1, sequence (Q13526 whole entry): as above
Pin1 and DAPK1, sequence (Q13526 whole entry): as above

Compound | association between Pin1 and DAPK1 [1] | cell viability [2] | pilot screen hit ranking by Z-score ([3]; 5 nM probe and 200 nM Pin1) | Pin1 inhibition in the FP assay [3] | IC50, cell viability [4] | IC50, cell viability [5] | Pin1 activity in the PPIase assay [6] | cell death after RARa knockdown [7] | binding to Pin1 point mutants [8] | cell viability, Pin1 KO MEF versus WT MEF [9] | cell viability, Pin1 KO MEF re-expressing Pin1 ([9]; stably expressing WT Pin1 or W34 K63A Pin1 mutant)
CC1=C(/C=C/C(C)=C/C=C/C(C)=C\C(=O)O)C(C)(C)CCC1 [cis-RA, 13-cis-retinoic acid] | blocked the association between Pin1 and DAPK1 in a dose-dependent manner | remained unaffected | top inhibitory chemical | eventually catch up with trans-RA in the long-term incubation with Pin1 | nano-molar range | nano-molar range | blocked | only partially rescue |  |  | 
CC1=C(/C=C/C(C)=C/C=C/C(C)=C/C(=O)O)C(C)(C)CCC1 [trans-RA, all-trans retinoic acid] | blocked the association between Pin1 and DAPK1 in a dose-dependent manner, with trans being more potent | remained unaffected |  | even more prominent Pin1 inhibition than cis-RA | nano-molar range | nano-molar range | blocked |  | completely or significantly abolished | Pin1 KO MEF was more resistant to trans-RA than WT MEF | Pin1 KO MEF stably expressing WT Pin1, but not W34 K63A Pin1 mutant, enabled cells to re-sensitize trans-RA
